# Data from patent US20250206754A1, “PAN-CHEMOKINE ANTAGONISTS FOR USE IN TREATING CANCER AND IMMUNE DISORDERS” ("Micar Innovation" LTD., priority 2022, published 2025).
# Where two headings read alike, the source gives them in different places.
# Test system: 4T-1-luc cells
# Format: in vivo
# Conditions: for bioluminescence intensity of lung: Day32 after inoculation, ex vivo; for total number of metastasis found by the ex-vivo studies: control group 10; for Metastasis on Liver, mice with metastasis / Metastasis on Liver, total number / Metastasis on Lung, mice with metastasis / Metastasis on Lung, total number / Metastasis on ribs, mice with metastasis / Metastasis on ribs, total number: ex-vivo
# Protocol: Design of the in vivo study: A total of 44 female BALB/c mice (12 mice for maximal tolerance dose (MTD) study; 32 mice for efficacy study) were used in the 4T-1-Luc study. The animals were specific pathogen free and approximately 4-5 weeks old at the initiation of the study.
# Murine breast carcinoma cells 4T-1-luc cells used in this study, were cultured in a 37° C. incubator containing 5% CO2 with 10% FBS and 2 μg/mL puromycin in RPMI1640 medium. The cells were sub-cultured within 10 passages before inoculated into the mice. 2*10^5 4T-1-luc cells suspended in 20 uL PBS were orthotopically injected into the 4th fat pat on the right side of each mouse. Before inoculation, mice were pre-anesthetized with 30 mg/kg Zoletil mixed with 10 mg/kg Xylazine and kept anesthetized with 3-4% isoflurane. Injected subcutaneously 20 mg/kg Tolfedine as painkillers once a day for 3 days. The day of cell inoculation was denoted as Day0. On Day3, 16 bearing-tumor mice were randomized into 4 groups (4 mice per group) according to body weight and BLI signal. The information of the preparation of Hit 1 dosing solution is as follow:
# (§1) For 2-({6-phenylthieno[2,3-d]pyrimidin-4-yl}oxy)benzamide (Hit1, MIC5022) 5 mg/kg dose, the preparation was like that: weighed 2.5 mg of Hit 1, added in 0.50 ml of ethanol, vortex or magnetic stirring enough to mix well (all compound dissolved will be better), added in 2.00 ml of PEG400, vortex or magnetic stirring until getting a clear solution (no more than 60° C. water base ultrasonicate may be needed), added 2.50 ml of water to get clear solution. The concentration was 0.5 mg/ml, the storage condition was at 4C temperature and the preparation frequency was each 5 days.
# as §1, with “MIC5022) 30” for “MIC5022) 5”, “weighed 15” for “weighed 2.5”, “was 3” for “was 0.5”, “4C temperature,” for “4C temperature”
# The concentration was 15 mg/ml, the storage condition was at 4C temperature, and the preparation frequency was each 5 days.
# Each mouse has been observed for changes in general appearance and behavior every day for 4 weeks after grouping. The abnormal phenomena were recorded.
# Body weight: Mice were measured and recorded twice a week after grouping, and during the dose period. Animals were also weighed in the event of accidental death or near-death euthanasia. Tumor volume: The tumor volume (V) was calculated as follows: V=(length×width2)/2. Tumor volume was measured twice per week. Tumor growth inhibition (TGI), TGI=(1−(T/C)×100%; T and C as the mean tumor volumes of the treatment and control groups on the measurement day.
# The individual relative tumor volume (RTV) was calculated as follows: RTV=Vt/V0, where Vt was the volume on each day, and V0 was the volume at the beginning of the treatment. IVIS imaging: We used IVIS® In Vivo Imaging Systems (PerkinElmer, Waltham, MA) which allow high sensitivity and high resolution in vivo BLI and fluorescence imaging (FLI) across a wide range of wavelengths. Animals were imaged up to five at a time under 3-4% isoflurane gas anesthesia. Each mouse has been injected with D-Luciferin and imaged 10-15 minutes after the injection. BLI signal was quantified in regions of interest (ROIs) drawn around tumors or tissues ex vivo and the signal is expressed as photons per second, representing the flux radiating omni-directionally from the user-defined region […] post grouping (Day3, Day10, Day14, Day17, Day21, Day24, Day28 and Day31).
# [1] = G2 5 mg/kg, Day31 after inoculation
# [2] = G3 30 mg/kg, Day31 after inoculation
# [3] = G4 150 mg/kg, Day31 after inoculation
structure (smiles),measurement,setting,value
"NC(=O)c1ccccc1Oc1ncnc2sc(-c3ccccc3)cc12 [Hit 1, 2-({6-phenylthieno[2,3-d]pyrimidin-4-yl}oxy)benzamide]",bioluminescence intensity of lung,5 mg/kg,1.07E+06
same,total number of metastasis found by the ex-vivo studies,5 mg/kg,3
same,bioluminescence intensity of lung,30 mg/kg,1.66E+06
same,total number of metastasis found by the ex-vivo studies,30 mg/kg,2
same,bioluminescence intensity of lung,150 mg/kg,1.56E+06
same,total number of metastasis found by the ex-vivo studies,150 mg/kg,5
same,reduction of the spread of the tumor (bioluminescence vs control),"5, 30, 150 mg/kg, Day31",6-10 folds
same,metastasis in liver and ribs,"5, 30, 150 mg/kg, ex-vivo images and manual counting",completely eliminated
same,reduction of metastasis development (lung bioluminescence vs control),"5, 30 and 150 mg/kg, Day32",about five
same,"Animal bioluminescence imaging intensity, Mean","G2 5 mg/kg p.o. QD, Day 3",2.07E+07 10^8 p/s
same,"Animal bioluminescence imaging intensity, Mean","G2 5 mg/kg p.o. QD, Day 10",1.56E+08 10^8 p/s
same,"Animal bioluminescence imaging intensity, Mean","G2 5 mg/kg p.o. QD, Day 17",3.39E+08 10^8 p/s
same,"Animal bioluminescence imaging intensity, Mean","G2 5 mg/kg p.o. QD, Day 21",4.78E+08 10^8 p/s
same,"Animal bioluminescence imaging intensity, Mean","G2 5 mg/kg p.o. QD, Day 24",3.52E+08 10^8 p/s
same,"Animal bioluminescence imaging intensity, Mean","G2 5 mg/kg p.o. QD, Day 28",4.34E+08 10^8 p/s
same,"Animal bioluminescence imaging intensity, Mean","G2 5 mg/kg p.o. QD, Day 31",5.01E+08 10^8 p/s
same,bioluminescence intensity,"G2 5 mg/kg, Day3 after inoculation",0.21*10^7±0.056*10^8 p/s
same,tumor volume (TV),"G2 5 mg/kg, Day10 after inoculation",86.53±6.03 mm^3
same,bioluminescence intensity,[1],5.01*10^8±2.67*10^8 p/s
same,relative tumor volume (RTV),[1],5.99±0.61
same,tumor volume (TV),[1],515.90±53.18 mm^3
same,"Metastasis on Liver, mice with metastasis",G2 (5 mg/kg),(0/4 mice)
same,"Metastasis on Liver, total number",G2 (5 mg/kg),totally 0
same,"Metastasis on Lung, mice with metastasis",G2 (5 mg/kg),2/4 and (2/4 mice)
same,"Metastasis on Lung, total number",G2 (5 mg/kg),totally 3
same,"Metastasis on ribs, mice with metastasis",G2 (5 mg/kg),(0/4 mice)
same,"Metastasis on ribs, total number",G2 (5 mg/kg),totally 0
same,"TV, RTV and TW compared with G1","G2, G3 and G4 (5, 30, 150 mg/kg), p>0.05",no significant differences
same,tumor weight (TW),G3 30 mg/kg,0.95 ± 0.16 g
same,"Animal bioluminescence imaging intensity, Mean","G3 30 mg/kg p.o. QD, Day 3",2.31E+07 10^8 p/s
same,"Animal bioluminescence imaging intensity, Mean","G3 30 mg/kg p.o. QD, Day 10",2.71E+08 10^8 p/s
same,"Animal bioluminescence imaging intensity, Mean","G3 30 mg/kg p.o. QD, Day 17",1.32E+08 10^8 p/s
same,"Animal bioluminescence imaging intensity, Mean","G3 30 mg/kg p.o. QD, Day 21",1.30E+08 10^8 p/s
same,"Animal bioluminescence imaging intensity, Mean","G3 30 mg/kg p.o. QD, Day 24",2.08E+08 10^8 p/s
same,"Animal bioluminescence imaging intensity, Mean","G3 30 mg/kg p.o. QD, Day 28",4.49E+08 10^8 p/s
same,"Animal bioluminescence imaging intensity, Mean","G3 30 mg/kg p.o. QD, Day 31",3.26E+08 10^8 p/s
same,bioluminescence intensity,"G3 30 mg/kg, Day3 after inoculation",0.23*10^7±0.075*10^8 p/s
same,tumor volume (TV),"G3 30 mg/kg, Day10 after inoculation",90.30±7.67 mm^3
same,bioluminescence intensity,[2],3.26*10^8±0.89*10^8 p/s
same,relative tumor volume (RTV),[2],5.33±0.64
same,tumor volume (TV),[2],489.69±85.03 mm^3
same,"Metastasis on Liver, mice with metastasis",G3 (30 mg/kg),(0/4 mice)
same,"Metastasis on Liver, total number",G3 (30 mg/kg),totally 0
same,"Metastasis on Lung, mice with metastasis",G3 (30 mg/kg),2/4 and (2/4 mice)
same,"Metastasis on Lung, total number",G3 (30 mg/kg),totally 2
same,"Metastasis on ribs, mice with metastasis",G3 (30 mg/kg),(0/4 mice)
same,"Metastasis on ribs, total number",G3 (30 mg/kg),totally 0
same,RTV course,"G3 group 30 mg/kg, after day 24",clear decrease in the RTV
same,tumor weight (TW),G4 150 mg/kg,1.05 ± 0.19 g
same,bioluminescence intensity,"G4 150 mg/kg, Day3 after inoculation",0.21*10^7±0.054*10^8 p/s
same,tumor volume (TV),"G4 150 mg/kg, Day10 after inoculation",85.22±10.26 mm^3
same,bioluminescence intensity,[3],5.08*10^8±2.16*10^8 p/s
same,relative tumor volume (RTV),[3],5.92±0.63
same,tumor volume (TV),[3],515.66±98.37 mm^3
same,"Metastasis on Liver, mice with metastasis",G4 (150 mg/kg),(0/4 mice)
same,"Metastasis on Liver, total number",G4 (150 mg/kg),totally 0
same,"Metastasis on Lung, total number",G4 (150 mg/kg),totally 5
same,"Metastasis on ribs, mice with metastasis",G4 (150 mg/kg),(0/4 mice)
same,"Metastasis on ribs, total number",G4 (150 mg/kg),totally 0
same,"Animal bioluminescence imaging intensity, Mean","Q4 150 mg/kg p.o. QD, Day 3",2.07E+07 10^8 p/s
same,"Animal bioluminescence imaging intensity, Mean","Q4 150 mg/kg p.o. QD, Day 10",4.97E+07 10^8 p/s
same,"Animal bioluminescence imaging intensity, Mean","Q4 150 mg/kg p.o. QD, Day 15",1.33E+08 10^8 p/s
same,"Animal bioluminescence imaging intensity, Mean","Q4 150 mg/kg p.o. QD, Day 17",2.43E+08 10^8 p/s
same,"Animal bioluminescence imaging intensity, Mean","Q4 150 mg/kg p.o. QD, Day 21",2.94E+08 10^8 p/s
same,"Animal bioluminescence imaging intensity, Mean","Q4 150 mg/kg p.o. QD, Day 24",3.20E+08 10^8 p/s
same,"Animal bioluminescence imaging intensity, Mean","Q4 150 mg/kg p.o. QD, Day 28",5.27E+08 10^8 p/s
same,"Animal bioluminescence imaging intensity, Mean","Q4 150 mg/kg p.o. QD, Day 31",5.08E+08 10^8 p/s
same,death or abnormal behavior during the experiment,"efficacy study, 5, 30, 150 mg/kg p.o. QD",no mice death or abnormal behavior of mice
same,safety conclusion,"mouse, in vivo",relatively biologically safe
